Drawing on US9567322B2, “Substituted tetrahydropyrans and method of use” (AbbVie S.á.r.l., priority 2014, dated 2017), this text covers EC50 and Maximum % activity for eleven molecules.

Molecules are shown by their SMILES.

For this assay, the target named is T1, F508delCFTR (Homo sapiens, UniProt P13569, DEL508-508).
T1 construct: expressed in transfected cells; host or cells: CFBE41o- (CFBE41o-F508delCFTR-HRP), doxycycline-inducible
Put plainly: Cell Surface Expression-Horse Radish Peroxidase (CSE-HRP) assay. As to conditions: CFBE41o-F508delCFTR-HRP cells; for EC50: cell surface expression, luminescence readout, 18-24 hours at 33° C., highest concentration tested 20 μM, 8-point curve; for Maximum % activity: maximum at any tested concentration, normalized to on-plate positive control (3 μM) and DMSO. The assay is classed as cell-based. From the text: Cell Surface Expression-Horse Radish Peroxidase (CSE-HRP) Assay:
A cellular assay for measuring the F508delCFTR cell surface expression after correction with test compounds was developed in human lung derived epithelial cell line (CFBE41o-) (Veit G et al, (2012) Mol Biol Cell. 23(21): 4188-4202). This was achieved by expressing the F508delCFTR mutation along with a horseradish peroxidase (HRP) in the fourth exofacial loop and then measuring the HRP activity using luminescence readout from these cells, CFBE41o-F508delCFTR-HRP, that were incubated overnight with the test corrector compounds. Briefly, for this primary assay, the CFBE41o-F508delCFTR-HRP cells were plated in 384-well plates (Greiner Bio-one; Cat 781080) at 4,000 cells/well along with 0.5 μg/mL doxycycline to induce the F508delCFTR-HRP expression and further incubated at 37° C., 5% CO2 for 72 hours. The test compounds were then added at the required concentrations and further incubated for 18-24 hours at 33° C. The highest concentration tested was 20 μM with an 8-point concentration response curve using a 3-fold dilution. Three replicate plates were run to determine one EC50. All plates contained negative controls (dimethyl sulfoxide, DMSO) and positive controls (3 μM of 3-[(2R,4R)-4-({[1-(2,2-difluoro-1,3-benzodioxol-5-yl)cyclopropyl]carbonyl}amino)-7-methoxy-3,4-dihydro-2H-chromen-2-yl]benzoic acid) as well as on-plate concentration response of the positive control. Post incubation, the plates were washed 5× times with Dulbecco's phosphate buffered saline (DPBS), followed by the addition of the HRP substrate, luminol (50 μL), and measuring the HRP activity using luminescence readout on EnVision® Multilabel Plate Reader (Perkin Elmer; product number 2104-0010). The raw counts from the experiment are analyzed using Accelrys® Assay Explorer v3.3.
Z′ greater than 0.5 was used as passing quality control criteria for the plates.
The Z′ is defined as: 1−[3*SDPositive Control+3*SDNegative Control/Absolute(MeanPositive Control−MeanNegative Control)],
wherein “SD” is standard deviation.
The % activity measured at each of the 8 test concentrations of the test compound was normalized to the on-plate positive control using the following formula: % activity=[(test compound response−DMSO response)/(positive control response−DMSO response)]*100
The maximum % activity achieved for the test compound at any tested concentration is presented in Table 1 along with the EC50 calculated using the following general sigmoidal curve with variable Hill slope equation (described as Model 42 in the Accelrys® Assay Explorer v3.3 software): y=(a−d)/(1+(x/c)^b)+d General sigmoidal curve with concentration, response, top, bottom, EC50 and Hill slope.
This model describes a sigmoidal curve with an adjustable baseline, a. The equation can be used to fit curves where response is either increasing or decreasing with respect to the independent variable, “x”.
“x” is a concentration of drug under test.
“a” is the maximum response, and “d” is the minimum response
“c” is the inflection point (EC50) for the curve. That is, “y” is halfway between the lower and upper asymptotes when x=c.
“b” is the slope-factor or Hill coefficient. The sign of b is positive when the response increases with increasing dose and is negative when the response decreases with increasing dose (inhibition).

T1 sequence (P13569 with tags, fused parts or gaps DEL508-508): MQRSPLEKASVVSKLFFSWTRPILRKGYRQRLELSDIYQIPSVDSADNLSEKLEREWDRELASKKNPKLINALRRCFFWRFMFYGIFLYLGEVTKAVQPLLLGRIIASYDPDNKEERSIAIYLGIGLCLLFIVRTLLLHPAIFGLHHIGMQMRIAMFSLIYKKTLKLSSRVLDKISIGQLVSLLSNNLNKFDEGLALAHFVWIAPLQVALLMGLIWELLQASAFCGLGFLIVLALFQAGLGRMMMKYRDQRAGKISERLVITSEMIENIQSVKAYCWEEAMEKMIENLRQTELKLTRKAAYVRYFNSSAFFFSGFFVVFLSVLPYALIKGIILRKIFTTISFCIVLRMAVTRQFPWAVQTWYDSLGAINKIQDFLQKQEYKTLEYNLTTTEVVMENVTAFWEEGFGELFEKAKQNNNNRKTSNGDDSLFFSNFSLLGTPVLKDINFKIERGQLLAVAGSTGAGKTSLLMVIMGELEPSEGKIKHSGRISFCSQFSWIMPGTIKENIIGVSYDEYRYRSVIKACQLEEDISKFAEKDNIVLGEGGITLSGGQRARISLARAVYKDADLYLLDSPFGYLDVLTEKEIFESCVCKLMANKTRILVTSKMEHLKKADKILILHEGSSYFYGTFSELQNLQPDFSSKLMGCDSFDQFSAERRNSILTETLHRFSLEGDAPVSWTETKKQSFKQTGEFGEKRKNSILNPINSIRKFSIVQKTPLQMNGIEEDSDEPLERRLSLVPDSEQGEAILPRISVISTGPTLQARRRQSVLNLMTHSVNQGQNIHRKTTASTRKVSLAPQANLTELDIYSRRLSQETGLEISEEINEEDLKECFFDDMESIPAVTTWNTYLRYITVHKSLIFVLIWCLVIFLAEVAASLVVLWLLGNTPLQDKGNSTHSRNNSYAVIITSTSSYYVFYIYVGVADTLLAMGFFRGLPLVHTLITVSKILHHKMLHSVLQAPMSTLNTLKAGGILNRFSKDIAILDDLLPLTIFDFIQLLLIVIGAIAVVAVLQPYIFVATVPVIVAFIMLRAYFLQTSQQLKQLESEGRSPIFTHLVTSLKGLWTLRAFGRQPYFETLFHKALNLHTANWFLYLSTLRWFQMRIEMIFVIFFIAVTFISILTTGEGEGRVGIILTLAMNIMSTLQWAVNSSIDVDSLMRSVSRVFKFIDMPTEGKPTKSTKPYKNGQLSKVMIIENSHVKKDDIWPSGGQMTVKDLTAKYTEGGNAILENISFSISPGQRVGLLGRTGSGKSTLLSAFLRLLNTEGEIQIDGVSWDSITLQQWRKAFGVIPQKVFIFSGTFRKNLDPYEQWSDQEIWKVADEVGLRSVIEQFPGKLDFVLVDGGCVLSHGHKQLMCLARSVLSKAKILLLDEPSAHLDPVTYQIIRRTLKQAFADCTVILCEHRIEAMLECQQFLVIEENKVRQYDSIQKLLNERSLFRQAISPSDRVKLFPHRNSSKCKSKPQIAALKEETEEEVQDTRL

One may read the EC50 as the concentration giving half of the maximal effect. Read a low EC50 as an effect from little substance. In turn, `Cc1cc(C(=O)O)ccc1[C@H]1C[C@H](NC(=O)C2(c3ccc4c(c3)OC(F)(F)O4)CC2)C[C@@H](c2ccccc2)O1` (racemic) [Example 64, rac-4-[(2R,4R,6S)-4-({[1-(2,2-difluoro-1,3-benzodioxol-5-yl)cyclopropyl]carbonyl}amino)-6-phenyltetrahydro-2H-pyran-2-yl]-3-methylbenzoic acid] had an EC50 of 2400 nM. Besides, the Maximum % activity (3 µM) came to 53%.

With `CCOC(=O)c1cccc([C@H]2C[C@@H](NC(=O)C3(c4ccc5c(c4)OC(F)(F)O5)CC3)C[C@@H](c3cccc(OC)c3)O2)c1` (racemic) [Example 68, ethyl rac-3-[(2R,4R,6S)-4-({[1-(2,2-difluoro-1,3-benzodioxol-5-yl)cyclopropyl]carbonyl}amino)-6-(3-methoxyphenyl)tetrahydro-2H-pyran-2-yl]benzoate], a half-maximal effect (EC50) was put at 1040 nM and the Maximum % activity came out at 108%.

Consider `COc1cccc([C@@H]2C[C@H](NC(=O)C3(c4ccc5c(c4)OC(F)(F)O5)CC3)C[C@H](c3cccc(C(=O)O)c3)O2)c1` (racemic) [Example 69, rac-3-[(2R,4R,6S)-4-({[1-(2,2-difluoro-1,3-benzodioxol-5-yl)cyclopropyl]carbonyl}amino)-6-(3-methoxyphenyl)tetrahydro-2H-pyran-2-yl]benzoic acid], for which a half-maximal response (EC50) required 420 nM and the Maximum % activity was determined as 85%.

In the case of `Cc1ccc(C(=O)O)cc1[C@H]1C[C@@H](NC(=O)C2(c3ccc4c(c3)OC(F)(F)O4)CC2)C[C@@H](c2ccccc2)O1` (racemic) [Example 70, rac-3-[(2R,4S,6S)-4-({[1-(2,2-difluoro-1,3-benzodioxol-5-yl)cyclopropyl]carbonyl}amino)-6-phenyltetrahydro-2H-pyran-2-yl]-4-methylbenzoic acid], the EC50 was found to be 910 nM and the Maximum % activity stood at 92%.

Regarding `COC(=O)c1ccc(C)c([C@H]2C[C@@H](NC(=O)C3(c4ccc5c(c4)OC(F)(F)O5)CC3)C[C@@H](c3ccccc3)O2)c1` (racemic) [Example 71, methyl rac-3-[(2R,4S,6S)-4-({[1-(2,2-difluoro-1,3-benzodioxol-5-yl)cyclopropyl]carbonyl}amino)-6-phenyltetrahydro-2H-pyran-2-yl]-4-methylbenzoate], a half-maximal response (EC50) required 1310 nM and the Maximum % activity was found to be 92%.

Regarding `CCOC(=O)c1cc(C)cc([C@H]2C[C@@H](NC(=O)C3(c4ccc5c(c4)OC(F)(F)O5)CC3)C[C@@H](c3ccccc3)O2)c1` (racemic) [Example 72, ethyl rac-3-[(2R,4S,6S)-4-({[1-(2,2-difluoro-1,3-benzodioxol-5-yl)cyclopropyl]carbonyl}amino)-6-phenyltetrahydro-2H-pyran-2-yl]-5-methylbenzoate], the EC50 was found to be 1160 nM and the Maximum % activity was 106%.

As for `COC(=O)c1ccc([C@@H]2C[C@H](NC(=O)C3(c4ccc5c(c4)OC(F)(F)O5)CC3)CCO2)c(C)c1` (single isomer, unassigned) [Example 40], the response was half-maximal at 2100 nM (EC50) and the Maximum % activity was determined as 60%.

Consider `COC(=O)c1ccc([C@H]2C[C@@H](NC(=O)C3(c4ccc5c(c4)OC(F)(F)O5)CC3)CCO2)c(C)c1` (single isomer, unassigned) [Example 41], for which the EC50 stood at 410 nM and the Maximum % activity came to 104%.

Regarding `O=C(O)c1ccc([C@@H]2C[C@H](NC(=O)C3(c4ccc5c(c4)OC(F)(F)O5)CC3)C[C@H](c3ccccc3)O2)cc1` (single isomer, unassigned) [Example 54], the EC50 was determined as 1710 nM and the Maximum % activity worked out at 71%.

With `C[C@H]1C[C@@H](NC(=O)C2(c3ccc4c(c3)OC(F)(F)O4)CC2)C[C@@H](c2ccc(C(=O)O)cc2)O1` (single isomer, unassigned) [Example 58], the EC50 turned out to be 7370 nM and the Maximum % activity is listed as 63%.

Regarding `C[C@@H]1C[C@H](NC(=O)C2(c3ccc4c(c3)OC(F)(F)O4)CC2)C[C@H](c2ccc(C(=O)O)cc2)O1` (single isomer, unassigned) [Example 59], the EC50 was 980 nM and the Maximum % activity was determined as 90%.
